Measured values as given in publication PMC10862732 (bioRxiv, 2024).

Test system: T7 LysY/Iq E. coli
Format: cell-based
Settings: 0 – 0.5 mM IPTG, 37 °C, 12 hours, OD600

Substance: RRIRFRPPYL•••G••PRFPPPFPIPRIPRIP [Tur1a]
- Host growth upon induction of AMP expression with IPTG (self-depletion): dramatically slowed growth
